Reference: publication PMC6522510 (Nature Communications, 2019)

What was measured:
[1] = system: CMS; experiment: Secondary dose-response HTS, Cell Titer Glo; format: cell-based, human; settings: secondary high-throughput screen, CMS
[2] = system: CMK; experiment: Secondary dose-response HTS, Cell Titer Glo; format: cell-based, human; settings: secondary high-throughput screen, CMK
[3] = system: CHRF288-11; experiment: Secondary dose-response HTS, Cell Titer Glo; format: cell-based, human; settings: secondary high-throughput screen, CHRF288-11; for EC50: Homo sapiens, HTS, read-out: average effective concentration, CHRF288-11
[4] = system: U937; experiment: Secondary dose-response HTS, Cell Titer Glo; format: cell-based, human; settings: secondary high-throughput screen, U937; for EC50: Homo sapiens, U-937, read-out: average effective concentration, U937
[5] = system: MV4-11; experiment: Secondary dose-response HTS, Cell Titer Glo; format: cell-based, human; settings: secondary high-throughput screen, MV4-11; for EC50: Homo sapiens, read-out: average effective concentration, MV4-11
[6] = system: ML2; experiment: Secondary dose-response HTS, Cell Titer Glo; format: cell-based, human; settings: secondary high-throughput screen, ML-2; for EC50: Homo sapiens, read-out: average effective concentration, ML-2
[7] = system: CMK; experiment: cells; parameters: species or system AML cell lines (8); Secondary HTS, 10-point dose-response in triplicate, Cell Titer Glo viability, four-parameter fit EC50; settings: Homo sapiens, CMK, 72 h, read-out: CMK
[8] = system: MV4-11; experiment: cells; parameters: species or system AML cell lines (8); Secondary HTS, 10-point dose-response in triplicate, Cell Titer Glo viability, four-parameter fit EC50; settings: Homo sapiens, MV4-11, 72 h, read-out: MV4-11
[9] = system: MOLM-13; experiment: cells; parameters: species or system AML cell lines (8); Secondary HTS, 10-point dose-response in triplicate, Cell Titer Glo viability, four-parameter fit EC50; settings: Homo sapiens, MOLM-13, 72 h, read-out: MOLM-13
[10] = system: CHRF288-11; experiment: cells; parameters: species or system AML cell lines (8); Secondary HTS, 10-point dose-response in triplicate, Cell Titer Glo viability, four-parameter fit EC50; settings: 72 h, read-out: CHRF288-11
[11] = system: U937; experiment: cells; parameters: species or system AML cell lines (8); Secondary HTS, 10-point dose-response in triplicate, Cell Titer Glo viability, four-parameter fit EC50; settings: Homo sapiens, U-937, 72 h, read-out: U937
[12] = system: CMS; experiment: cells; parameters: species or system AML cell lines (8); Secondary HTS, 10-point dose-response in triplicate, Cell Titer Glo viability, four-parameter fit EC50; settings: 72 h, read-out: CMS
[13] = system: M07e; experiment: cells; parameters: species or system AML cell lines (8); Secondary HTS, 10-point dose-response in triplicate, Cell Titer Glo viability, four-parameter fit EC50; settings: M-07e, 72 h, read-out: M07e
[14] = system: MOLM-13; experiment: Secondary dose-response HTS, Cell Titer Glo; format: cell-based, human; settings: Homo sapiens; secondary high-throughput screen; MOLM-13; read-out: average effective concentration, MOLM-13

Row | SMILES | EC50 [7] [µM] | EC50 [8] [µM] | EC50 [10] [µM] | EC50 [11] [µM] | EC50 [6] [µM] | EC50 [12] [µM] | EC50 [13] [µM] | EC50 [3] [µM] | EC50 [14] [µM] | further results
1 | Cc1noc(-c2ccc(-c3ccc(CC(=O)O)cc3)cc2)c1NC(=O)O[C@H](C)c1ccccc1 [AM-095] | – | – | – | – | – | – | – | – | – | average effective concentration, CMS [1]: Inactive; average effective concentration, CMK [2]: Inactive; average effective concentration, CHRF288-11 [3]: Inactive; average effective concentration, U937 [4]: Inactive; average effective concentration, MV4-11 [5]: Inactive; average effective concentration, ML-2 [6]: Inactive
2 | CON(C)C(=O)N1N=C(c2cc(F)ccc2F)S[C@@]1(CCCN)c1ccccc1 [ARRY-520] | > 10 | > 10 | – | – | – | – | – | – | – | EC50 [9]: > 10 µM
3 | CN[C@@H](C)C(=O)N[C@H]1CN(C(=O)CC(C)C)CC[C@H]2CC[C@@H](C(=O)NC(c3ccccc3)c3ccccc3)N2C1=O [AT-406] | > 10 | – | > 10 | > 10 | 6.6 | > 10 | > 10 | – | – | EC50 [9]: > 10 µM; EC50 [5]: 0.001 µM
4 | C[C@H]1[C@H](OC(=O)CCC(=O)O)O[C@@H]2O[C@@]3(C)CC[C@H]4[C@H](C)CC[C@@H]1[C@@]24OO3 [Artesunate] | > 10 | > 10 | – | – | – | – | – | – | – | –
5 | Nc1nccc2c1ncn2C1C=C(CO)C(O)C1O (stereo not shown) [Compound 3-DEAZANEPLANOCIN] | – | – | – | – | – | – | – | – | – | average effective concentration, CMS [1]: Inactive; average effective concentration, U937 [4]: Inactive; average effective concentration, MV4-11 [5]: Inactive; average effective concentration, ML-2 [6]: Inactive
6 | Nc1nc(=O)n([C@H]2C[C@H](O)[C@@H](CO)O2)cc1F [Compound 5-FLUORODEOXYCYTIDINE] | – | – | – | – | – | – | – | – | – | average effective concentration, CMS [1]: Inactive; average effective concentration, U937 [4]: Inactive; average effective concentration, MV4-11 [5]: Inactive
7 | Cc1nc(Nc2ncc(C(=O)Nc3c(C)cccc3Cl)s2)cc(N2CCN(CCO)CC2)n1 [DASATINIB] | > 10 | > 10 | – | > 10 | > 10 | > 10 | > 10 | 8.4 | – | EC50 [9]: > 10 µM
8 | O=c1oc2c(O)c(O)cc3c(=O)oc4c(O)c(O)cc1c4c23 [ELLAGIC ACID] | > 10 | > 10 | > 10 | > 10 | 0.51 | > 10 | > 10 | – | 0.8 | –
9 | CN[C@@H](C)C(=O)N[C@H](C(=O)N1CCC[C@H]1c1nc(C(=O)c2ccc(F)cc2)cs1)C1CCCCC1 [LCL-161] | > 10 | > 10 | – | > 10 | 5 | > 10 | > 10 | 8.5 | > 10 | –
10 | Cc1ccc(C(=O)Nc2ccc(Oc3cc4cnn(C)c4cc3-c3cn[nH]c3)c(F)c2)c(=O)n1-c1ccc(F)cc1 [LY2801653] | – | – | – | – | – | – | – | – | – | average effective concentration, CMS [1]: Inactive; average effective concentration, CMK [2]: Inactive; average effective concentration, CHRF288-11 [3]: Inactive; average effective concentration, U937 [4]: Inactive; average effective concentration, MV4-11 [5]: Inactive; average effective concentration, ML-2 [6]: Inactive
11 | CCN1CCN(Cc2ccc(Nc3ncc(F)c(-c4cc(F)c5nc(C)n(C(C)C)c5c4)n3)nc2)CC1 [LY2835219] | > 10 | – | > 10 | – | 4 | > 10 | > 10 | – | 1.9 | EC50 [4]: 2 µM; EC50 [5]: 1.9 µM
12 | CC1CS(=O)(=O)CCN1/N=C/c1ccc([N+](=O)[O-])o1 (stereo not shown) [NIFURTIMOX] | – | – | – | – | 8.5 | – | – | – | – | EC50 ([1]; Homo sapiens, HTS, read-out: average effective concentration, CMS): 5 µM; EC50 ([2]; Homo sapiens, read-out: average effective concentration, CMK): 2.3 µM; EC50 [4]: 2.7 µM
13 | O=C(c1cc(Cc2n[nH]c(=O)c3ccccc23)ccc1F)N1CCN(C(=O)C2CC2)CC1 [OLAPARIB] | > 10 | > 10 | – | > 10 | > 10 | > 10 | > 10 | > 10 | – | EC50 [9]: > 10 µM
14 | O=C(NOC[C@H](O)CO)c1ccc(F)c(F)c1Nc1ccc(I)cc1F [PD-0325901] | > 10 | > 10 | – | > 10 | 0.001 | > 10 | > 10 | > 10 | 0.92 | –
15 | Nc1nc2[nH]cc(CCc3ccc(C(=O)N[C@@H](CCC(=O)O)C(=O)O)cc3)c2c(=O)[nH]1 [PEMETREXED] | > 10 | – | – | > 10 | 0.066 | > 10 | > 10 | 0.1 | 0.048 | EC50 [5]: 0.035 µM
16 | O=C(O)C[C@H](O)C[C@H](O)/C=C/c1c(C2CC2)nc2ccccc2c1-c1ccc(F)cc1 [PITAVASTATIN] | > 10 | – | – | – | 5.1 | > 10 | > 10 | 2.2 | 5.3 | EC50 [4]: 8.5 µM; EC50 [5]: 7.6 µM
17 | Cc1nc2ccc(CN(C)c3ccc(C(=O)N[C@@H](CCC(=O)O)C(=O)O)s3)cc2c(=O)[nH]1 [RALTITREXED] | > 10 | – | – | > 10 | 0.1 | > 10 | > 10 | 0.095 | 0.068 | EC50 [5]: 0.027 µM
18 | CCOc1cc(C(C)(C)C)ccc1C1=N[C@@](C)(c2ccc(Cl)cc2)[C@@](C)(c2ccc(Cl)cc2)N1C(=O)N1CCN(CCCS(C)(=O)=O)CC1 [RG7112] | > 10 | – | > 10 | > 10 | – | > 10 | – | – | – | –
19 | O=C(O)c1ccc2c(c1)nc(Nc1cccc(Cl)c1)c1ccncc12 [SILMITASERTIB] | > 10 | > 10 | > 10 | > 10 | > 10 | > 10 | > 10 | – | > 10 | –
20 | CCC(C)(C)C(=O)O[C@H]1C[C@@H](C)C=C2C=C[C@H](C)[C@H](CC[C@@H]3C[C@@H](O)CC(=O)O3)[C@H]21 [SIMVASTATIN] | > 10 | > 10 | – | > 10 | > 10 | > 10 | > 10 | 4.1 | > 10 | –
21 | O=C1c2c(O)ccc(O)c2C(=O)c2c(NCCNCCO)ccc(NCCNCCO)c21 [SJ000285321, MITOXANTHRONE] | 0.043 | – | 0.024 | 0.026 | – | 0.085 | 0.033 | – | – | EC50 [9]: 0.0081 µM
22 | CNC(=O)c1cc(Oc2ccc(NC(=O)Nc3ccc(Cl)c(C(F)(F)F)c3)cc2)ccn1 [Sorafenib] | > 10 | 0.0073 | > 10 | – | – | > 10 | > 10 | – | – | –
23 | COc1ccc(C[C@@H](C)[C@@H](C)Cc2ccc(OC)c(OC)c2)cc1OC [TERAMEPROCOL] | > 10 | > 10 | > 10 | – | > 10 | > 10 | > 10 | – | > 10 | EC50 [4]: > 10 µM
24 | Oc1nc(-c2ccc(C(F)(F)F)cc2)nc2c1CSCC2 [XAV939] | > 10 | > 10 | > 10 | > 10 | 2.8 | > 10 | > 10 | – | – | EC50 [9]: > 10 µM
25 | O=c1ncccn1[C@@H]1O[C@H](CO)[C@@H](O)[C@H]1O [ZEBULARINE] | > 10 | > 10 | – | > 10 | 0.73 | > 10 | > 10 | 8.9 | 1.1 | –
